In PubChem BioAssay (NCI):
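Test compounds were applied to cells in 96-well plates for 48 hours at 5 doses. TGI denotes the concentration required for complete inhibition of growth.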

How the values were obtained:
Assay in all cases: NCI tumour cell line growth inhibition, 48 h
[1] = tested on: NCI-H226 lung
[2] = tested on: NCI/ADR-RES ovarian
[3] = tested on: HCT-116 colon
[4] = tested on: A498 renal
[5] = tested on: SF-268 CNS
[6] = tested on: M14 melanoma
[7] = tested on: MDA-MB-435
[8] = tested on: SK-MEL-28 melanoma
[9] = tested on: KM12 colon
[10] = tested on: SR leukemia
[11] = tested on: SN12C renal
[12] = tested on: COLO 205 colon
[13] = tested on: OVCAR-8 ovarian
[14] = tested on: UACC-257 melanoma
[15] = tested on: SK-MEL-5 melanoma
[16] = tested on: MOLT-4 leukemia
[17] = tested on: OVCAR-5 ovarian
[18] = tested on: CAKI-1 renal
[19] = tested on: OVCAR-4 ovarian
[20] = tested on: SK-OV-3 ovarian
[21] = tested on: RPMI-8226 leukemia
[22] = tested on: K-562 leukemia
[23] = tested on: HL-60(TB) leukemia
[24] = tested on: HS 578T breast
[25] = tested on: EKVX NSCLC
[26] = tested on: ACHN renal
[27] = tested on: MDA-N
[28] = tested on: HT29 colon
[29] = tested on: HOP-62 NSCLC
[30] = tested on: NCI-H23 lung
[31] = tested on: CCRF-CEM leukemia
[32] = tested on: HCT-15 colon
[33] = tested on: PC-3 prostate
[34] = tested on: SNB-75 CNS
[35] = tested on: UO-31 renal
[36] = tested on: NCI-H522 lung
[37] = tested on: SW-620 colon
[38] = tested on: SK-MEL-2 melanoma
[39] = tested on: A549 NSCLC
[40] = tested on: UACC-62 melanoma
[41] = tested on: DU-145 prostate
[42] = tested on: LOX IMVI melanoma
[43] = tested on: BT-549 breast
[44] = tested on: TK-10 renal
[45] = tested on: MDA-MB-231 breast
[46] = tested on: SF-539 CNS
[47] = tested on: MALME-3M melanoma
[48] = tested on: SNB-19 CNS
[49] = tested on: SF-295 CNS
[50] = tested on: MCF7 breast
[51] = tested on: HCC-2998 colon
[52] = tested on: U251 CNS
[53] = tested on: OVCAR-3 ovarian
[54] = tested on: 786-0 renal
[55] = tested on: NCI-H460 lung
[56] = tested on: HOP-92 NSCLC
[57] = tested on: RXF 393 renal
[58] = tested on: T-47D breast
[59] = tested on: IGROV1 ovarian

`CC1(F)C=CC(=O)C=C1` gave a TGI [1] greater than 100 µM, a TGI [2] of 34.8 µM and a TGI [3] greater than 100 µM. It also gave a TGI [4] greater than 100 µM, a TGI [5] greater than 100 µM and a TGI [6] greater than 100 µM. The TGI [7] was greater than 100 µM, the TGI [8] was greater than 100 µM and the TGI [9] was greater than 100 µM. It also gave a TGI [10] greater than 100 µM, a TGI [11] greater than 100 µM and a TGI [12] greater than 100 µM. It also gave a TGI [13] of 42.7 µM, a TGI [14] greater than 100 µM and a TGI [15] greater than 100 µM. It also gave a TGI [16] greater than 100 µM, a TGI [17] greater than 100 µM and a TGI [18] greater than 100 µM. The TGI [19] was greater than 100 µM, the TGI [20] was greater than 100 µM and the TGI [21] was greater than 100 µM. For the same molecule, the TGI [22] was greater than 100 µM, the TGI [23] was 93.1 µM and the TGI [24] was greater than 100 µM. The TGI [25] was greater than 100 µM, the TGI [26] was greater than 100 µM and the TGI [27] was greater than 100 µM. It also gave a TGI [28] greater than 100 µM, a TGI [29] greater than 100 µM and a TGI [30] greater than 100 µM. The TGI [31] was greater than 100 µM, the TGI [32] was 45.7 µM and the TGI [33] was greater than 100 µM. For the same molecule, the TGI [34] was greater than 100 µM, the TGI [35] was greater than 100 µM and the TGI [36] was greater than 100 µM. The TGI [37] was 42.3 µM, the TGI [38] was greater than 100 µM and the TGI [39] was greater than 100 µM. For the same molecule, the TGI [40] was greater than 100 µM, the TGI [41] was greater than 100 µM and the TGI [42] was 31.4 µM. For the same molecule, the TGI [43] was greater than 100 µM, the TGI [44] was greater than 100 µM and the TGI [45] was greater than 100 µM. For the same molecule, the TGI [46] was greater than 100 µM, the TGI [47] was 68.9 µM and the TGI [48] was greater than 100 µM. For the same molecule, the TGI [49] was greater than 100 µM, the TGI [50] was greater than 100 µM and the TGI [51] was greater than 100 µM. It also gave a TGI [52] greater than 100 µM, a TGI [53] greater than 100 µM and a TGI [54] of 35 µM. It also gave a TGI [55] greater than 100 µM and a TGI [56] of 72.1 µM.
`CC(C)/C(Cl)=N\OC(=O)Nc1ccc(F)cc1` gave a TGI [1] of 36.9 µM, a TGI [2] greater than 48.5 µM and a TGI [3] of 22.6 µM. The TGI [4] was 28.5 µM, the TGI [5] was 56.1 µM and the TGI [6] was 16.1 µM. It also gave a TGI [8] of 11.5 µM, a TGI [9] of 35.7 µM and a TGI [10] of 4.33 µM. It also gave a TGI [11] of 16.7 µM, a TGI [12] of 4.42 µM and a TGI [13] of 25.6 µM. It also gave a TGI [14] of 28.3 µM, a TGI [15] of 26.4 µM and a TGI [16] of 4.2 µM. For the same molecule, the TGI [17] was 30.4 µM, the TGI [20] was 31.7 µM and the TGI [21] was 4.19 µM. It also gave a TGI [22] of 3.45 µM, a TGI [23] of 3.72 µM and a TGI [24] of 71.9 µM. It also gave a TGI [25] of 11.3 µM, a TGI [26] of 7.7 µM and a TGI [27] of 23.2 µM. The TGI [28] was 4.6 µM, the TGI [29] was 33.4 µM and the TGI [30] was 38.4 µM. The TGI [31] was 3.62 µM, the TGI [32] was 12.9 µM and the TGI [57] was 29.9 µM. It also gave a TGI [33] of 31.4 µM, a TGI [35] of 10.5 µM and a TGI [36] of 3.02 µM. The TGI [37] was 3.23 µM, the TGI [38] was 32.8 µM and the TGI [39] was 35.9 µM. For the same molecule, the TGI [40] was 40 µM, the TGI [41] was 30.7 µM and the TGI [42] was 5.73 µM. The TGI [43] was 24.2 µM, the TGI [44] was 9.06 µM and the TGI [45] was 5.17 µM. The TGI [58] was 24.1 µM, the TGI [46] was 32.8 µM and the TGI [47] was 3.91 µM. The TGI [48] was 39.3 µM, the TGI [49] was 27.8 µM and the TGI [50] was 14.3 µM. For the same molecule, the TGI [51] was 32 µM, the TGI [52] was 29 µM and the TGI [53] was 21.6 µM. The TGI [54] was 9.55 µM, the TGI [55] was 36.1 µM and the TGI [59] was 31.7 µM.
Work on `Cc1cc(C#N)c[n+](C)c1` yielded a TGI [1] greater than 100 µM, a TGI [2] greater than 100 µM and a TGI [3] greater than 100 µM. It also gave a TGI [4] greater than 100 µM, a TGI [5] greater than 100 µM and a TGI [6] greater than 100 µM. The TGI [8] was greater than 100 µM, the TGI [9] was greater than 100 µM and the TGI [10] was greater than 100 µM. For the same molecule, the TGI [11] was greater than 100 µM, the TGI [12] was greater than 100 µM and the TGI [13] was greater than 100 µM. The TGI [14] was greater than 100 µM, the TGI [15] was greater than 100 µM and the TGI [16] was greater than 100 µM. The TGI [17] was greater than 100 µM, the TGI [18] was greater than 100 µM and the TGI [19] was greater than 100 µM. The TGI [20] was greater than 100 µM, the TGI [22] was greater than 100 µM and the TGI [23] was greater than 100 µM. For the same molecule, the TGI [24] was greater than 100 µM, the TGI [25] was greater than 100 µM and the TGI [26] was greater than 100 µM. It also gave a TGI [27] greater than 100 µM, a TGI [28] greater than 100 µM and a TGI [29] greater than 100 µM. The TGI [30] was greater than 100 µM, the TGI [31] was greater than 100 µM and the TGI [32] was greater than 100 µM. The TGI [57] was greater than 100 µM, the TGI [33] was greater than 100 µM and the TGI [34] was greater than 100 µM. It also gave a TGI [35] greater than 100 µM, a TGI [36] greater than 100 µM and a TGI [37] greater than 100 µM. For the same molecule, the TGI [38] was greater than 100 µM, the TGI [39] was greater than 100 µM and the TGI [40] was greater than 100 µM. The TGI [41] was greater than 100 µM, the TGI [43] was greater than 100 µM and the TGI [44] was greater than 100 µM. The TGI [45] was greater than 100 µM, the TGI [58] was greater than 100 µM and the TGI [46] was greater than 100 µM. The TGI [47] was greater than 100 µM, the TGI [48] was greater than 100 µM and the TGI [49] was greater than 100 µM. For the same molecule, the TGI [50] was greater than 100 µM, the TGI [51] was greater than 100 µM and the TGI [52] was greater than 100 µM. For the same molecule, the TGI [53] was greater than 100 µM, the TGI [54] was greater than 100 µM and the TGI [55] was greater than 100 µM. The TGI [59] was greater than 100 µM.
